Laboratory results published in article PMC7821181, “MS Binding Assays for Glycine Transporter 2 (GlyT2) Employing Org25543 as Reporter Ligand” (Chemmedchem, 2020).
“And” between values parts separate entries of the source, which are not always exact repeats. Equal values may be shown once. “Also recorded” adds a separate entry of the source.

How the values were obtained:
hGlyT2 = molecular target: T1, hGlyT2 (Homo sapiens, UniProt Q9Y345); test: GlyT2 MS Binding Assays: kinetic (dissociation and association) experiments
T1 construct: host or cells: HEK293 cells stably expressing hGlyT2; crude membrane fractions
T1 sequence (Q9Y345 1-797): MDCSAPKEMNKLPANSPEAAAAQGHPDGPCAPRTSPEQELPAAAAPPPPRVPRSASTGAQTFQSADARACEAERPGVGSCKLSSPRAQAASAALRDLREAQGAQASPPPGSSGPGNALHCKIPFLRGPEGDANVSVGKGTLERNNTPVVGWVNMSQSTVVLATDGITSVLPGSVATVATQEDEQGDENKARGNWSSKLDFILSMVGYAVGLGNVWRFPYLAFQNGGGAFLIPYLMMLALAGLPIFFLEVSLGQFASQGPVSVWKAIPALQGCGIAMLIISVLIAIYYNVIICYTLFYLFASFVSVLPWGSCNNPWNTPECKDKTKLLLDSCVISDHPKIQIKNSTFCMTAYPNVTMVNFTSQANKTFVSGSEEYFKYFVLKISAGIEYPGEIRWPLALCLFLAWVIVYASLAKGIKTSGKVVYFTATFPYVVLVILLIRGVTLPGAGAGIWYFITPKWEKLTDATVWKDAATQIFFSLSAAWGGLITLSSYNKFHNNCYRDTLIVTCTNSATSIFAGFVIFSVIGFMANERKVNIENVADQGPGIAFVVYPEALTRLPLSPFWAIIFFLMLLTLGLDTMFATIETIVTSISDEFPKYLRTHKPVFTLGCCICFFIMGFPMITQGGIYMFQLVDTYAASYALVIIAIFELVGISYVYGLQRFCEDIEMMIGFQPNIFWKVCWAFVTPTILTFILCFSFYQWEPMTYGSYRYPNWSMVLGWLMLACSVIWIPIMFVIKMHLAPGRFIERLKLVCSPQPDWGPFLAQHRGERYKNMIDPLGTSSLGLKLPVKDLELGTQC
Method: For the determination of the dissociation rate constant of Org25543 the so‐called displacer method was applied. Thus, after the target protein GlyT2 had been incubated with the reporter ligand Org25543 at a defined concentration (final concentration: 10 nM) and the binding allowed to reach equilibrium (1 h) dissociation was initiated by addition of 8 (final concentration: 30 μM). Overall, 12 samples were taken, the first after 15 s and the last after 3 h, and processed as described for competitive binding experiments. The same way nonspecific binding was determined except that the target protein had been subjected to a heat‐shock before. Plotting of specific binding calculated from total and nonspecific binding against time yielded the respective dissociation curves.
Next, for the determination of the association kinetics of Org25543 association experiments had to be performed. By the knowledge of [L] and k off, from k obs as the primary result of such experiments, finally, the derived rate constant k on becomes accessible by using the relation given at Equation 1, the transformed form of which is Equation 2. (1) kobs=kon×L+koff (2) kon=(kobs-koff)/L
For the determination of k obs Org25543 was added to the target protein, to start the association process, which was then stopped at eleven different time points (15 s–2 h), to measure the amount of bound marker at these defined time points. The nonspecific binding was determined for the same time points like for total binding samples but utilizing target material that had been subjected to a heat‐shock before. The concentration of the reporter ligand Org25543 was set to a value of 10 nM. […] For the establishment of association curves specific binding calculated from total binding and nonspecific binding was plotted against time.
Dissociation experiments via displacing Org25543 from GlyT2 with an excess of competitor were performed in 25 mL round bottom flasks made of glass (Duran Wheaton Kimble Life Sciences GmbH, Wertheim, Germany). For determining dissociation rate constants by the displacer approach GlyT2 membrane fractions were pre‐incubated with Org25543 at a nominal concentration of 10 nM at 37 °C in a water bath for 1 h in a total volume of 24.85 mL. The solution and the water bath were stirred constantly with magnetic stir bars at a frequency of ∼500 rpm. After 1 h of incubation dissociation was initiated by adding 150 μL of 8 resulting in […] of 30 μM. After defined time points (15 s–3 h, twelve dissociation time points, samples for each time point were prepared in triplicates) dissociation was terminated via vacuum filtration and the samples were treated the same way as described in Experimental Section MS Binding Assay: General procedure. Nonspecific binding was determined at the same time points as for the dissociation samples but incubating 10 nM Org25543 in the presence of 30 μM 8 and heat‐shocked GlyT2 membrane preparations (triplicate).

GlyT2 [1] = molecular target: T2, GlyT2 (Homo sapiens, UniProt Q9Y345); test: preliminary Org25543 saturation experiments in absence or presence of glycine; assay type: binding; conditions: for Bmax in relation to control without glycine (100 %) / Kd in relation to control without glycine (100 %): mean ± SD, two experiments
T2 construct: host or cells: HEK293 cells stably expressing hGlyT2; crude membrane fractions
T2 sequence (Q9Y345 1-797): T1 sequence (Q9Y345 1-797)
Method: glass fiber, 1.0 µm, 350 µL; Pall Corporation, Port Washington, NY, USA) were washed with water (3 x 200 µL) and methanol (3 x 200 µL) and subsequently pre-incubated for 2 h at room temperature with 0.5 % polyethylenimine (PEI). […]
KCl, 1 mM MgCl2, 1 mM CaCl2, pH 7.5) in polypropylene 96 well plates (1.2 mL well volume, Sarstedt, Nümbrecht, Germany) in total volume of 250 µL at 37 °C in a shaking water bath. After the incubation times for the filters and incubation samples had been expired, PEI was removed from the filters by vacuum filtration and 210 µL aliquots of the incubation samples were transferred on the filters and were removed by vacuum filtration as well. The filters were washed with ammonium ac etate buffer (3 x 200 µL, 154 mM, pH 7.4) and were dried at 50 °C for 1 h. After that the remaining Org25543 on the filters were washed down with acetonitrile (3 x 70 µL) containing [ 2H7]Org25543 (125 pM) and 52.5 µL ammonium bicarbonate buffer (5 mM, pH 7.8) was added to the samples to adjust the sample solvent to the mobile phase (5 mM ammonium bicarbonate buffer ( pH 7.8)/acetonitrile ( 20:80, v/v)). Finally, the samples were subjected to LC-ESI-MS/MS quantification without further sample preparation. […]
Investigating the inhibition mode of glycine in preliminary Org25543 saturation […]
In these preliminary experiments saturation experiments were performed in the same way as it is described in the Material and methods part except that Org25543 and GlyT2 were incubated either in the absence of glycine or in the presence of 2, 20 or 200 mM glycine. The saturation isotherms of a representative experiment are depicted […]
(control) in all experiments and Kd and Bmax values determined in the presence of the […]

GlyT2 [2] = conditions: ref 23, 27; read-out: IC50 (literature range); cited from earlier work

For `COc1cc(C(=O)NCC2(N(C)C)CCCC2)cc(OC)c1OCc1ccccc1` [Org25543, N‐[[1‐(dimethylamino)cyclopentyl]methyl]‐3,5‐dimethoxy‐4‐(phenylmethoxy)benzamide], the Kd (hGlyT2) was 6.99 nM, the “k obs (observed association rate constant)” value (hGlyT2; Org25543 10 nM, 37 °C, mean±SEM, n=3) was 1.72±0.01×10^−2 s^−1 and 1.72×10^−2 s^−1 and the koff (hGlyT2; Org25543 10 nM, displacement by 30 μM 8, 37 °C, mean±SEM, n=3, read-out: k off (dissociation rate constant)) was 0.00707 s⁻¹. The kon (hGlyT2; calculated as (k obs−k off)/L, read-out: k on (association rate constant)) was 1.01e+06 M⁻¹ s⁻¹, the “reversibility of binding at GlyT2, in words” value (hGlyT2; dissociation experiments) was “fully reversible; also recorded: full reversibility” and the “Bmax in relation to control without glycine (100 %)” value (GlyT2 [1]; 2 mM glycine) was 106 ± 13%. The “Kd in relation to control without glycine (100 %)” value (GlyT2 [1]; 2 mM glycine) was 129 ± 24%, the “Bmax in relation to control without glycine (100 %)” value (GlyT2 [1]; 20 mM glycine) was 101 ± 12% and the “Kd in relation to control without glycine (100 %)” value (GlyT2 [1]; 20 mM glycine) was 222 ± 56%. The “Kd in relation to control without glycine (100 %)” value (GlyT2 [1]; 200 mM glycine) was 814 ± 154%, the “B max (representative preliminary saturation experiment)” value (“B max” below) (GlyT2 [1]; in the presence of 2 mM glycine) was 9.75 pmol (mg protein)-1 and the “B max” value (GlyT2 [1]; in the presence of 20 mM glycine) was 9.24 pmol (mg protein)-1. For the same molecule, the “B max” value (GlyT2 [1]; in the presence of 200 mM glycine) was 8.74 pmol (mg protein)-1, the “B max” value (GlyT2 [1]; without glycine) was 8.45 pmol (mg protein)-1 and the Kd (GlyT2 [1]; without glycine, read-out: K d of Org25543 (representative preliminary saturation experiment)) was 5.18 nM. For the same molecule, the IC50 (GlyT2 [2]) was 16 to 31 nM.
